Results reported in EP0571928A1, “Acyclic Tocotrienol analogs in the treatment of hypercholesterolemia and hyperlipidemia” (Bristol-Myers Squibb Company, priority 1992, dated 1993).

Tests used:
[1] = system: Normocholesterolemic Chickens; assay: In vivo evaluation in normocholesterolemic chickens - serum cholesterol pools; settings: 6-week old male chickens, 50 ppm in diet for four weeks; for Total Cholesterol: serum
Description: (§1) In Vivo Biological Evaluation in Normocholesterolemic Chickens
(§2) Newborn male chicks (10 for each group) were raised on a standard corn-soybean based control diet for two weeks and then switched to either control or experimental diets for four weeks. Drug treatment consisted of the addition of test compounds to the corn-soybean-based diet at a concentration of 50 ppm. At the end of the feeding period, all the birds were fasted (36 hours) and refed (48 hours) to induce cholesterolgenic enzymes prior to sacrifice. The specific activity of HMGR, total serum cholesterol levels, LDL cholesterol and HDL cholesterol pools were determined (Table 6).

[2] = system: HMG-CoA reductase; assay: HepG2 cell culture model - HMG-CoA reductase suppression assay; type: cell-based; settings: HepG2 cells, 4 hours of incubation at 37°, decrease in specific activity vs. vehicle controls
Description: HepG2 Cell Culture Model - HMG-CoA Reductase Suppression Assay
HMG-CoA reductase suppression in HepG2 cells was conducted by growing cells in RPMT-1640 plus 10% FBS on 100 mm plates, and when cells reached approximately 75% confluency, inducing with LDS (as described above) for 16 hours prior to assays. Compounds were added using dimethylsulfoxide vehicle (0.5% v/v, final) and after 4 hours of incubation at 37°, cells were harvested by scraping. Cell pellets were rinsed and lysed by sonication in 1.7 ml cold 50 mM imidazole-HCl, pH 7.2, 50 mM NaCl, 10 mM EDTA, 10 mM EGTA, 5mM DTT, and 40 µM leupeptin). Lysates were centrifuged at 150 x g and the supernatant was centrifuged at 100,000 x g in a Beckman airfuge to isolate the post-nuclear total membrane fraction. The membranes were resuspended in 50 mM imidazole-HCl, pH 7.2, 250 mM NaCl, 5 mM DTT, and 20 µM leupeptin and used for the assay of HMG-CoA reductase activity by the radiochemical procedure as described previously by Parker et al., J. Biol. Chem., 264: 4877-4887, (1989). Values were normalized for protein content by the Lowry method as cited previously (ibid). HMG-CoA reductase percent suppression was calculated as the decrease in specific activity of HMG-CoA reductase for treated cells vs. controls receiving vehicle. Averages of duplicate cell determinations assayed in duplicate were taken.

[3] = system: cholesterol biosynthesis in HepG2 cells; assay: HepG2 cell culture model - 14C-acetate incorporation assay (cholesterol synthesis); type: cell-based; settings: 3-4 hours incubation, 2-14C-acetate incorporation into digitonin-precipitable sterols, vs. vehicle controls; for inhibition at 10 µM: Homo sapiens, read-out: Sterol Biosynthesis % Inhibition 10µM
Description: HepG2 Cell Culture Model - 14C-Acetate Incorporation Assay
After 16 hours in LDS containing media, test compounds were added in dimethylsulfoxide vehicle (0.5% v/v final conc.) for an incubation period of 3-4 hours. Cholesterol synthesis was then directly determined by 2-14C-acetate (1.8 mCi/mmol, 0.5 µCi/ml) incorporation for 30 to 60 minutes (previously shown to be time-linear) into total digitonin-precipitable sterols. […] Percent inhibition was calculated from the average of duplicates vs. triplicate vehicle controls conducted simultaneously.

[4] = system: HMGR; assay: In vivo evaluation in normocholesterolemic chickens - specific activity of HMGR; settings: 6-week old male chickens, 50 ppm in diet for four weeks
Description: as §1, §2

Compound	HDL Cholesterol [1]	LDL Cholesterol [1]	Total Cholesterol [1]	HMG-CoA Reductase Suppression % 10µM [2] [%]	inhibition at 10 µM [3] [%]	HMGR [4]	Sterol Biosynthesis % Inhibition 10µM [3] [%]
CC(C)=CCC/C(C)=C/CC/C(C)=C/CCCOc1c(C)cc(O)cc1C [Example 12, 3,5-Dimethyl-4-[(5,9,13-Trimethyl-4(E), 8(E), 12-tetradecatrienyl)oxy] phenol]	70 % of Control	50 % of Control	67 % of Control	35	70		
CC(C)=CCC/C(C)=C/CC/C(C)=C/CCCOc1ccc(NS(C)(=O)=O)cc1 [Example 25, N-[4-[(5,9,13-Trimethyl-4(E), 8(E),12-tetradecatrienyl)oxy]phenyl]methanesulfonamide]	91 % of Control	45 % of Control	72 % of Control	9	77	86 % of Control	
CC(C)=CCC/C(C)=C/CC/C(C)=C/CCCSc1ccc(O)cc1 [Example 30, 4-[(5,9,13-Trimethyl-4(E), 8(E),12-tetradecatrienyl)thio]phenol]				29	68		
γ-tocotrienol [reference compound]	91 % of Control	44 % of Control	75 % of Control	63		82 % of Control	69
